From patent US11000033B2, “Ketone or oxime compound, and herbicide” (NISSAN CHEMICAL CORPORATION, priority 2014, dated 2021)

Assays:
Digitaria ciliaris = experiment: Test Example 5: herbicidal effect by foliage application, plastic box (symbol F); type: in vivo; conditions: 320 g/ha, 3 weeks after application
Method in brief: (§1)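 Emulsion formulation, diluted with water to the intended rate, was applied uniformly to leaves by small sprayer. Recipients were 14-day greenhouse-grown seedlings (25° C. to 30° C.). Assessment followed at 3 weeks.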

[1] = test system: Echinochloa crus-galli var. crus-galli; experiment: Test Example 5: herbicidal effect by foliage application, plastic box (symbol H); type: in vivo; conditions: 320 g/ha, 3 weeks after application
Method in brief: as §1

Structure (SMILES)	F: Digitaria ciliaris, herbicidal effect (criteria of Test Example 1) (Digitaria ciliaris)	H: Echinochloa crus-galli var. crus-galli, herbicidal effect (criteria of Test Example 1) [1]	F: Digitaria ciliaris, herbicidal effect grade (Digitaria ciliaris)	H: Echinochloa crus-galli var. crus-galli, herbicidal effect grade [1]
CON=C(C)CC1CC(OC(=O)COc2ccccc2)=C(c2c(C)cc(-c3ccccc3)cc2OC)C1=O (centres unmarked) [6-100]	5 (Herbicidal ratio of 90% or more (almost completely withered))	5 (Herbicidal ratio of 90% or more (almost completely withered))	–	–
CC(=O)CC1CC(O)=C(c2c(C)cc(Oc3ccc(C(F)(F)F)cn3)cc2C)C1=O (centres unmarked) [7-019]	3 (Herbicidal ratio of 40% or higher and lower than 70%)	4 (Herbicidal ratio of 70% or higher and lower than 90%)	–	–
CC(CC1CC(O)=C(c2c(C)cc(C)cc2C)C1=O)=NOCc1ccccn1 (centres unmarked) [1-022]	–	–	5 (Herbicidal ratio of 90% or more (almost completely withered))	5 (Herbicidal ratio of 90% or more (almost completely withered))
CON=C(C)CC1CC(O)=C(c2c(C)cc(-c3ccc(Cl)cc3)cc2OC)C1=O (centres unmarked) [6-077, 2-(4′-chloro-3-methoxy-5-methyl-[1,1′-biphenyl]-4-yl)-3-hydroxy-5-{2-(methoxyimino)propyl}cyclopent-2-enone]	5 (Herbicidal ratio of 90% or more (almost completely withered))	5 (Herbicidal ratio of 90% or more (almost completely withered))	–	–
CON=C(C)C(C(C)=NOC)C1CC(O)=C(c2c(C)cc(C)cc2C)C1=O (centres unmarked) [1-021]	–	–	1 (Herbicidal ratio of 5% or higher and lower than 20%)	3 (Herbicidal ratio of 40% or higher and lower than 70%)
CON=C(C)CC1CC(O)=C(c2c(C)cc(-c3ccsc3)cc2C)C1=O (centres unmarked) [6-106]	5 (Herbicidal ratio of 90% or more (almost completely withered))	5 (Herbicidal ratio of 90% or more (almost completely withered))	–	–
CC(=O)CC1CC(O)=C(c2c(C)cc(OCc3ccccc3)cc2C)C1=O (centres unmarked) [7-018]	5 (Herbicidal ratio of 90% or more (almost completely withered))	4 (Herbicidal ratio of 70% or higher and lower than 90%)	–	–
CON=C(C)CC1CC(O)=C(c2c(C)cc(-c3ccc(OC(F)(F)F)cc3)cc2C)C1=O (mixture of isomers) [6-056]	5 (Herbicidal ratio of 90% or more (almost completely withered))	4 (Herbicidal ratio of 70% or higher and lower than 90%)	–	–
CC(=O)CC1CC(O)=C(c2c(C)cc(-c3ccc(C)cc3)cc2C)C1=O (centres unmarked) [7-007]	5 (Herbicidal ratio of 90% or more (almost completely withered))	5 (Herbicidal ratio of 90% or more (almost completely withered))	–	–
CON=C(C)CC1CC(O)=C(c2c(C)cc(-c3ccccn3)cc2C)C1=O (mixture of isomers) [6-051]	–	–	5 (Herbicidal ratio of 90% or more (almost completely withered))	5 (Herbicidal ratio of 90% or more (almost completely withered))
CON=C(C)CC1CC(OC(=O)N2CCOCC2)=C(c2c(C)cc(-c3ccc(Cl)cc3)cc2OC)C1=O (centres unmarked) [6-078, 2-(4′-chloro-3-methoxy-5-methyl-[1,1′-biphenyl]-4-yl)-4-{2-(methoxyimino)propyl}-3-oxocyclopent-1-ene-1-yl morpholine-4-carboxylate]	5 (Herbicidal ratio of 90% or more (almost completely withered))	5 (Herbicidal ratio of 90% or more (almost completely withered))	–	–
CON=C(C)C(=O)C1CC(O)=C(c2c(C)cc(C)cc2C)C1=O (centres unmarked) [8-002]	–	–	0 (Herbicidal ratio of 5% or lower (almost no effect))	3 (Herbicidal ratio of 40% or higher and lower than 70%)
CC(=O)CC1CC(O)=C(c2c(C)cc(OCC(F)(F)F)cc2C)C1=O (centres unmarked) [7-015]	5 (Herbicidal ratio of 90% or more (almost completely withered))	5 (Herbicidal ratio of 90% or more (almost completely withered))	–	–
COc1ccc(-c2cc(C)c(C3=C(O)CC(CC(C)=O)C3=O)c(C)c2)cc1 (centres unmarked) [7-006]	5 (Herbicidal ratio of 90% or more (almost completely withered))	5 (Herbicidal ratio of 90% or more (almost completely withered))	–	–
CC(=O)CC1CC(O)=C(c2c(C)cc(-n3cccn3)cc2C)C1=O (centres unmarked) [7-024]	0 (Herbicidal ratio of 5% or lower (almost no effect))	5 (Herbicidal ratio of 90% or more (almost completely withered))	–	–
CON=C(C)CC1CC(O)=C(c2c(C)cc(-c3cc(F)c(F)c(F)c3)cc2C)C1=O (centres unmarked) [6-104]	5 (Herbicidal ratio of 90% or more (almost completely withered))	5 (Herbicidal ratio of 90% or more (almost completely withered))	–	–

Structure (SMILES)	F: Digitaria ciliaris, herbicidal effect (criteria of Test Example 1) (Digitaria ciliaris)	H: Echinochloa crus-galli var. crus-galli, herbicidal effect (criteria of Test Example 1) [1]	F: Digitaria ciliaris, herbicidal effect grade (Digitaria ciliaris)	H: Echinochloa crus-galli var. crus-galli, herbicidal effect grade [1]
COc1cc(Br)cc(C)c1C1=C(O)CC(CC(C)=O)C1=O (centres unmarked) [7-027, 2-(4-bromo-2-methoxy-6-methylphenyl)-3-hydroxy-5-(2-oxopropyl)cyclopent-2-enone]	5 (Herbicidal ratio of 90% or more (almost completely withered))	5 (Herbicidal ratio of 90% or more (almost completely withered))	–	–
CON=C(C)CC1CC(OC(=O)C(C)CSC)=C(c2c(C)cc(-c3ccc(Cl)cc3)cc2C)C1=O (centres unmarked) [6-086]	5 (Herbicidal ratio of 90% or more (almost completely withered))	5 (Herbicidal ratio of 90% or more (almost completely withered))	–	–
CC(=O)CC1CC(O)=C(c2c(C)cc(-c3ccc(C(F)(F)F)cc3)cc2C)C1=O (centres unmarked) [7-005]	5 (Herbicidal ratio of 90% or more (almost completely withered))	5 (Herbicidal ratio of 90% or more (almost completely withered))	–	–
CC(=O)CC1CC(O)=C(c2c(C)cc(-c3ccc(Cl)cc3)cc2C)C1=O (centres unmarked) [7-008]	5 (Herbicidal ratio of 90% or more (almost completely withered))	5 (Herbicidal ratio of 90% or more (almost completely withered))	–	–
CON=C(C)CC1CC(O)=C(c2c(C)cc(-c3ccc(F)c(Cl)c3)cc2C)C1=O (centres unmarked) [6-085]	5 (Herbicidal ratio of 90% or more (almost completely withered))	5 (Herbicidal ratio of 90% or more (almost completely withered))	–	–
CON=C(C)CC1CC(O)=C(c2c(C)cc(-n3cccn3)cc2C)C1=O (centres unmarked) [6-073]	5 (Herbicidal ratio of 90% or more (almost completely withered))	5 (Herbicidal ratio of 90% or more (almost completely withered))	–	–
CON=C(C)CC1CC(OC(=O)N(C)C)=C(c2c(C)cc(C)cc2OC)C1=O (centres unmarked) [6-109]	5 (Herbicidal ratio of 90% or more (almost completely withered))	5 (Herbicidal ratio of 90% or more (almost completely withered))	–	–
CON=C(C)CC1CC(O)=C(c2c(C)cc(-c3ccc(F)cc3)cc2C)C1=O (mixture of isomers) [6-058]	5 (Herbicidal ratio of 90% or more (almost completely withered))	5 (Herbicidal ratio of 90% or more (almost completely withered))	–	–
CON=C(C)CC1CC(OC(=O)COc2ccccc2)=C(c2c(C)cc(C)cc2OC)C1=O (centres unmarked) [6-091]	5 (Herbicidal ratio of 90% or more (almost completely withered))	5 (Herbicidal ratio of 90% or more (almost completely withered))	–	–
CON=C(C)CC1CC(O)=C(c2c(C)cc(OCc3ccncc3)cc2C)C1=O (mixture of isomers) [6-053]	–	–	5 (Herbicidal ratio of 90% or more (almost completely withered))	5 (Herbicidal ratio of 90% or more (almost completely withered))
CCc1cc(Br)cc(C)c1C1=C(O)CC(C(C(C)=O)C(=O)OC)C1=O (centres unmarked) [7-001]	5 (Herbicidal ratio of 90% or more (almost completely withered))	4 (Herbicidal ratio of 70% or higher and lower than 90%)	–	–
CON=C(C)CC1CC(OS(=O)(=O)N(C)C)=C(c2c(C)cc(C)cc2OC)C1=O (centres unmarked) [6-095]	5 (Herbicidal ratio of 90% or more (almost completely withered))	5 (Herbicidal ratio of 90% or more (almost completely withered))	–	–
CC(=O)C1CC(O)=C(c2c(C)cc(C)cc2C)C1=O (centres unmarked) [8-001]	–	–	1 (Herbicidal ratio of 5% or higher and lower than 20%)	1 (Herbicidal ratio of 5% or higher and lower than 20%)
CON=C(C)CC1CC(OC(=O)N2CCCC2)=C(c2c(C)cc(C)cc2OC)C1=O (centres unmarked) [6-110]	5 (Herbicidal ratio of 90% or more (almost completely withered))	5 (Herbicidal ratio of 90% or more (almost completely withered))	–	–
CC#Cc1cc(C)c(C2=C(O)CC(CC(C)=O)C2=O)c(C)c1 (centres unmarked) [7-010]	5 (Herbicidal ratio of 90% or more (almost completely withered))	5 (Herbicidal ratio of 90% or more (almost completely withered))	–	–
